Source: US12479843B2, “Spiro ring-containing quinazoline compounds” (WIGEN BIOMEDICINE TECHNOLOGY (SHANGHAI) CO., LTD., priority 2019, dated 2025)
Where two headings read alike, the source gives them in different places.

Columns and labels:
pERK level in H358 cells = experiment: pERK and ERK protein content assay in H358 cells (ELISA); type: cell-based; settings: Homo sapiens, NCI-H358, compound 1 μM, 24 h, pERK/ERK ratio compared with DMSO group, read-out: Inhibition rate (%) of pERK level
Outline: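 H358 cells grown one day, then treated 24 h with compound at 1 μM. pERK and ERK in lysates measured by ELISA; pERK/ERK ratio expressed as percent inhibition versus DMSO.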

H358 cells = experiment: Antiproliferative activity against H358 cells (Cell Titer Glow, ultra-low attachment plate); type: cell-based; settings: Homo sapiens, NCI-H358, 72 h, three days after addition of compound
Experimental: 2500 H358 cells were seeded in a 96-well ultra-low attachment plate (corning, 7007). After one day of growth, a serially diluted compound (a maximum concentration of 5 μM, 5-fold dilution, a total of five doses) was added. Three days after the addition of the compound, Cell Titer Glow (Promega, G9681) was added to evaluate pellet growth, and the IC50 value was calculated.

[1] = Pharmacokinetic evaluation in mice; type: in vivo, male ICR mice; settings: for AUC(0-t) / clearance / half-life / Cmax / Tmax / Vd: male, ICR, mouse, plasma; for Cmax: read-out: Cmax; for Tmax: read-out: Tmax; for Vd: read-out: Vss; for F: po 10 mg/kg vs iv 2 mg/kg
Experimental: The compounds were administered by intravenous injection at a dose of 2 mg/kg and oral gavage at a dose of 10 mg/kg (0.5% CMC-Na suspension). 15 male ICR mice were selected for each group, and each mouse was subjected to blood collection at 3 discrete time points, with 3 mice per time point. The time points of sampling were as follows: before the administration, and at 5 min, 15 min, 30 min, 1 h, 3 h, 5 h, 8 h, 12 h and 24 h after the administration. 80 μL of blood was collected from the eye sockets or the hearts of the mice at each of the time points after the administration. All whole blood samples were collected in tubes containing EDTA K2 and centrifuged (1500-1600 rmp) at 4° C. for 10 min to isolate plasma, which was then stored in a refrigerator at −90 to −60° C. for sample analysis. The compound concentration in the plasma was determined by liquid chromatography-tandem mass spectrometry, and the corresponding pharmacokinetic parameters were obtained according to a plasma concentration-time curve.

[2] = system: Human pancreatic cancer Mia PaCa-2 cells; experiment: Antitumor activity on graft tumors of human pancreatic cancer Mia PaCa-2 in nude mice; type: in vivo; settings: Mia PaCa-2 graft tumors in nude mice, 10 mg/kg intragastric, qd*21
Experimental: Human pancreatic cancer Mia PaCa-2 cells were cultured conventionally in 1640 medium containing 10% fetal bovine serum in a 37° C./5% CO2 incubator. After passage, the cells were collected when they reached the desired amount. 1×10^7 Mia PaCa-2 cells were injected into the left dorsal side of each nude mouse, and the animals were randomly grouped for administration after tumors grew to 150 mm3. The groups are as follows: 1) a solvent control group of 8 mice; and 2) compound 1 group, compound 2 group, compound 5 group, compound 31 group, compound 131 group, compound 142 group, compound 171 group, compound B group and compound C group, with 8 mice per group. Mice in the solvent control group were subjected to intragastric administration of 0.5% CMC-Na once daily; mice in compound 1 group, compound 2 group, compound 5 group, compound 31 group, compound 131 group, compound 142 group, compound 171 group, compound B group and compound C group were subjected to intragastric administration of a suspension of a compound in 0.5% CMC-Na once daily. On Tuesday and Thursday each week, tumor volumes and body weight of the mice were measured, and the nude mice were sacrificed on day 21 of administration.

[3] = system: phosphorylated ERK (pERK) level in H358 cells; experiment: pERK level assay by western blot in H358 cells; type: cell-based; settings: overnight incubation, same concentration, FIG. 1
Experimental: H358 cells were plated on to a 24-well plate at 2×10^5 cells/well. Serially diluted compounds including AMG510, MRTX849, compound 142 and compound 171 were added. After overnight incubation, cells were lysed, and proteins were quantified and subjected to gel electrophoresis.

[4] = 96-well ultra-low attachment plate, Cell Titer Glow
[5] = po, 10 mg/kg, 0.5% CMC-Na suspension

| Compound | inhibition at 1 µM (pERK level in H358 cells) [%] | IC50 (H358 cells; [4]) [nM] | IC50 (H358 cells) [nM] | AUC(0-t) ([1]; iv, 2 mg/kg) [ng·h/mL] | clearance ([1]; iv, 2 mg/kg) [mL/min/kg] | half-life ([1]; iv, 2 mg/kg) [h] | Cmax ([1]; iv, 2 mg/kg) [ng/mL] | Tmax ([1]; iv, 2 mg/kg) [h] | Vd ([1]; iv, 2 mg/kg) [L/kg] | AUC(0-t) [1, 5] [ng·h/mL] | half-life [1, 5] [h] | Cmax [1, 5] [ng/mL] | Tmax [1, 5] [h] | F [1] [%] | Anti-tumor effect (regression) [2] [% regression] | inhibition of the phosphorylated ERK (pERK) level in cells compared with AMG510 and MRTX849 [3] |
| --- | --- | --- | --- | --- | --- | --- | --- | --- | --- | --- | --- | --- | --- | --- | --- | --- |
| C=CC(=O)N1CC2(CCN(c3nc(N4CC(N5CCC5)C4)nc4c(OCC(F)(F)F)c(-c5c(C)ccc6[nH]ncc56)c(C5CC5)cc34)CC2)C1 [Compound 142] | > 90 | < 300 | 2.5 | 52000 | 0.642 | 3.31 | 13100 | 0.083 | 0.187 | 46000 | 3.89 | 6730 | 2 | 17.7 | 35 | stronger inhibition |
| C=CC(=O)N1CC2(CCN(c3nc(N4CC(N5CCCC5)C4)nc4c(OCC(F)(F)F)c(-c5c(C)ccc6[nH]ncc56)c(C5CC5)cc34)CC2)C1 [Compound 171] | > 90 | < 300 | 1.4 | 26500 | 1.26 | 4.85 | 4910 | 0.083 | 0.505 | 35700 | 3.93 | 3320 | 2 | 26.9 | 38 | – |
